Active and inactive are the calls of the source. The rule behind the calls is not given here.
Assays:
[1] = Stabilization of [poly(dA).poly(dT)] triplex DNA (unknown origin) assessed as change in melting temperature at 10 uM by UV based assay
[2] = Binding affinity to triplex DNA1 containing 15 nucleotide-long triplex-forming region (unknown origin) assessed as change in melting temperature at 10 uM by UV based assay
[3] = Stabilization of [poly(dA).2poly(dT) triplex DNA (unknown origin) assessed as melting temperature at 20 uM by Thermal denaturation assay
[4] = Binding affinity to triplex DNA1 containing 15 nucleotide-long triplex-forming region (unknown origin) at 100 uM by ITC
[5] = Stabilization of [poly(dA).2poly(dT) triplex DNA (unknown origin) assessed as increase in melting temperature at 1 uM by Thermal denaturation assay
[6] = Stabilization of [poly(dA).2poly(dT) triplex DNA (unknown origin) assessed as melting temperature at 10 uM by DSC assay (reference value: 36.8 degC)
[7] = Stabilization of [poly(dA).2poly(dT) triplex DNA (unknown origin) assessed as deltaH level temperature at 10 uM by DSC assay (reference value: 5.19 KJ/mol)
[8] = Stabilization of [poly(dA).2poly(dT) triplex DNA (unknown origin) assessed as deltaS level temperature at 10 uM by DSC assay (reference value: 0.0167 mol.K)
[9] = Stabilization of [poly(dA).2poly(dT) triplex DNA (unknown origin) assessed as effect on CD spectrum up to 25 uM by CD spectroscopy

Row | ΔTm [1] | ΔTm [2] | Tm [3] | Ka [4] | ΔTm [5] | Tm [6] | deltaH [7] | deltaS [8] | Activity [9] | Structure (SMILES)
1 | 10.3 °C | 11.2 °C | – | – | – | – | – | – | – | CCCN(CCC)CCCCOc1cc(OC)cc2oc(-c3ccc(OC)c(OC)c3)c(OC)c(=O)c12
2 | 2.4 °C | 5.6 °C | – | – | – | – | – | – | – | CCCCCN(CCCCC)CCCCOc1cc(OC)cc2oc(-c3ccc(OC)c(OC)c3)c(OC)c(=O)c12
3 | 3.3 °C | 5.6 °C | – | – | – | – | – | – | – | CCCCN(CCCC)CCCCOc1cc(OC)cc2oc(-c3ccc(OC)c(OC)c3)c(OC)c(=O)c12
4 | – | – | 24 °C | 160000 M⁻¹ | – | – | – | – | – | NC[C@@H]1O[C@H](O[C@H]2[C@@H](O)[C@H](O[C@@H]3[C@@H](O)[C@H](N)C[C@H](N)[C@H]3O[C@H]3O[C@H](CN)[C@@H](O)[C@H](O)[C@H]3N)O[C@@H]2CO)[C@H](N)[C@@H](O)[C@@H]1O
5 | 12.3 °C | 5.6 °C | – | – | – | – | – | – | – | COc1cc(OCCCCN2CCN(C)CC2)c2c(=O)c(OC)c(-c3ccc(OC)c(OC)c3)oc2c1
6 | 16.4 °C | 13.6 °C | 24 °C | – | 6 °C | – | – | – | – | COc1cc(OCCCCN2CCCCC2)c2c(=O)c(OC)c(-c3ccc(OC)c(OC)c3)oc2c1
7 | 17.4 °C | 12.6 °C | – | 310000 M⁻¹ | – | 48.9 °C | 2.08 kcal/mol | 0.0271 KJ/(mol.K) | Active | COc1cc(OCCCCN2CCCC2)c2c(=O)c(OC)c(-c3ccc(OC)c(OC)c3)oc2c1
8 | 14.5 °C | 11.2 °C | – | – | – | – | – | – | – | CCN(CC)CCCCOc1cc(OC)cc2oc(-c3ccc(OC)c(OC)c3)c(OC)c(=O)c12
9 | 2.5 °C | 3.2 °C | – | – | – | 38.5 °C | 1.24 kcal/mol | 0.0167 KJ/(mol.K) | Active | COc1cc(O)c2c(=O)c(OC)c(-c3ccc(OC)c(OC)c3)oc2c1
